Measured values as given in the NIST ThermoML archive (doi:10.1007/s10765-014-1828-5).

Conditions: 101.33 kPa, Liquid, Oscillating crucible method

[Ba+2].[F-].[F-] [barium difluoride]
Conditions | viscosity [mPa·s]
1620.2 K | 3.56
1642.3 K | 3.46
1657.3 K | 3.309
1682.7 K | 3.165
1697.5 K | 2.995
1722.7 K | 2.899
1723.2 K | 2.856
1738.8 K | 2.766
1763.4 K | 2.665
1779.4 K | 2.57
1802.5 K | 2.461
1819.5 K | 2.368
1842.3 K | 2.3
1860.1 K | 2.237
1880.4 K | 2.172

[F-].[F-].[Sr+2] [strontium fluoride]
Conditions | viscosity [mPa·s]
1743.4 K | 3.023
1749.8 K | 2.953
1750.4 K | 2.972
1762.4 K | 2.915
1769 K | 2.866
1780.9 K | 2.804
1788.6 K | 2.729
1796.9 K | 2.698
1810.3 K | 2.628
1817.9 K | 2.584
1826.5 K | 2.561
1833.2 K | 2.512
1846.4 K | 2.449
1852.2 K | 2.401
1854.3 K | 2.405
1864.6 K | 2.374

[F-].[F-].[Mg+2] [magnesium difluoride]
Conditions | viscosity [mPa·s]
1514.7 K | 2.416
1534.7 K | 2.25
1554.7 K | 2.257
1574.1 K | 2.09
1613.7 K | 2.081
1633.2 K | 2.036
1653.4 K | 1.98
1673.9 K | 1.895
1690.6 K | 1.784
1716.7 K | 1.763
1731 K | 1.758
1751 K | 1.68
1773 K | 1.632
1792.8 K | 1.588
1814.2 K | 1.602
1831.8 K | 1.552
1853.2 K | 1.448

[Ca+2].[F-].[F-] [calcium fluoride]
Conditions | viscosity [mPa·s]
1703.3 K | 2.932
1703.6 K | 2.878
1713.5 K | 2.82
1722.7 K | 2.77
1732.2 K | 2.735
1742.2 K | 2.657
1751.6 K | 2.623
1760.6 K | 2.562
1761.2 K | 2.586
1763.4 K | 2.571
1770.5 K | 2.542
1780.9 K | 2.476
1790.5 K | 2.432
1800.8 K | 2.408
1807.3 K | 2.371
1820.5 K | 2.34
1832.8 K | 2.265
1839.9 K | 2.268
1847.7 K | 2.223
1858.7 K | 2.185
1868.1 K | 2.149
